# Assay results reported in article PMC11227190, “Interaction mechanism of oseltamivir phosphate with bovine serum albumin: multispectroscopic and molecular docking study” (BMC Chemistry, 2024).
# Molecular target: T1, bovine serum albumin (BSA) (Bos taurus, UniProt P02769)
# T1 construct: gene ALB
# Assay: intrinsic fluorescence quenching (double-log Stern-Volmer, binding constant K at […] K); supported by UV absorption, CD and warfarin probe displacement
# Conditions: read-out: K (10^4 L.mol^- 1) (converted)
# T1 sequence (P02769 25-607): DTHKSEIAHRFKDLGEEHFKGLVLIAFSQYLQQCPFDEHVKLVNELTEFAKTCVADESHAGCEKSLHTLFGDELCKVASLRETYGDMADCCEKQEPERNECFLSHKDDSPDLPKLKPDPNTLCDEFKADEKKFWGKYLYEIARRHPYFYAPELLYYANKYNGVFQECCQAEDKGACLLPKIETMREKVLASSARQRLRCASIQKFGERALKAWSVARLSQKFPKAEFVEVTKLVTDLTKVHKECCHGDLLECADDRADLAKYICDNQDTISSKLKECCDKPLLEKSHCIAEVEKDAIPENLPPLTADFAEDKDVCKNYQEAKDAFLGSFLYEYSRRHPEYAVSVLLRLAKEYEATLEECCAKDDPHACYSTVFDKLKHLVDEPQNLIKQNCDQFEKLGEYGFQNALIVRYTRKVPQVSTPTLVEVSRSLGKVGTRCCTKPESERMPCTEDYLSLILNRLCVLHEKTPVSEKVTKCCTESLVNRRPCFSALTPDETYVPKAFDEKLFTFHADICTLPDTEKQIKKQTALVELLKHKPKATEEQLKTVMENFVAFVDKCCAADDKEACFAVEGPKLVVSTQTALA
smiles,measurement,value
"CCOC(=O)C1=C[C@@H](OC(CC)CC)[C@H](NC(C)=O)[C@@H](N)C1 [OP, (3R,4R,5 S)-4-acetamido-5-amino-3-(1-ethylepoxy)-1-cyclohexene-1-carboxylic acid ethyl ester phosphate]",Kd,47.8 µM
